Assays:
Type in all cases: toxicity, cell-based
HEK-293T = assay: Incucyte cell viability with HEK293T; conditions: human, 10 µM, compound concentration 10 uM
Fibroblast = assay: Incucyte cell viability with human fibroblast; conditions: 10 µM, compound concentration 10 uM
U2OS = assay: Incucyte cell viability with U2OS; conditions: human, 10 µM, compound concentration 10 uM
Note: unitless GR value; below 1 slowed growth and below 0 cell loss.

Row | Structure (SMILES) | Growth Rate (HEK-293T; 12 h, replicate number 1) | Growth Rate (HEK-293T; 12 h, replicate number 2) | Growth Rate (HEK-293T; 18 h, replicate number 1) | Growth Rate (HEK-293T; 24 h, replicate number 1) | Growth Rate (Fibroblast; 0 h, replicate number 2) | Growth Rate (Fibroblast; 6 h, replicate number 1) | Growth Rate (Fibroblast; 12 h, replicate number 1) | Growth Rate (Fibroblast; 18 h, replicate number 2) | Growth Rate (Fibroblast; 24 h, replicate number 2) | Growth Rate (U2OS; 0 h, replicate number 2) | Growth Rate (U2OS; 6 h, replicate number 1) | Growth Rate (U2OS; 6 h, replicate number 2) | Growth Rate (U2OS; 12 h, replicate number 2) | Growth Rate (U2OS; 18 h, replicate number 2) | Growth Rate (Fibroblast; 12 h, replicate number 2) | Growth Rate (U2OS; 12 h, replicate number 1) | Growth Rate (HEK-293T; 0 h, replicate number 1) | Growth Rate (HEK-293T; 0 h, replicate number 2) | Growth Rate (U2OS; 24 h, replicate number 1) | Growth Rate (U2OS; 24 h, replicate number 2) | other results
1 | CC(=O)N1CCN(c2ccc(OCC3COC(Cn4ccnc4)(c4ccc(Cl)cc4Cl)O3)cc2)CC1 (stereo not given) [KETOCONAZOLE] | 0.05 | 0.03 | 0.34 | 0.6 | -0.79 | 0.47 | -1 | 0.96 | 0.89 | -0.98 | 0.7 | 0.94 | 0.63 | 0.99 | – | – | – | – | – | – | Growth Rate (HEK-293T; 6 h, replicate number 1): -0.34; Growth Rate (HEK-293T; 6 h, replicate number 2): -0.16; Growth Rate (HEK-293T; 18 h, replicate number 2): 0.32; Growth Rate (HEK-293T; 24 h, replicate number 2): 0.38
2 | O=C(Nc1ccccc1Br)N[C@@H]1CCN(c2ccc(C(F)(F)F)cn2)C1 [SB-705498] | 0.76 | -0.08 | 0.32 | 0.31 | 0.7 | 0.4 | – | 0.51 | 0.58 | -0.91 | 0.99 | – | – | – | 0.55 | 0.83 | – | – | – | – | Growth Rate (HEK-293T; 6 h, replicate number 2): -0.43; Growth Rate (HEK-293T; 18 h, replicate number 2): 0.1; Growth Rate (HEK-293T; 24 h, replicate number 2): 0.07; Growth Rate (Fibroblast; 0 h, replicate number 1): 0.33; Growth Rate (Fibroblast; 6 h, replicate number 2): -0.3; Growth Rate (Fibroblast; 24 h, replicate number 1): 0.34; Growth Rate (U2OS; 0 h, replicate number 1): -0.73
3 | COc1cc2ncnc(Nc3ccc(Oc4ccccc4)cc3C)c2cc1OC.Cl | – | – | – | – | -0.78 | 0.3 | -1 | – | – | -0.92 | – | 0.35 | 0.74 | – | – | – | -0.14 | -0.45 | – | – | Growth Rate (Fibroblast; 0 h, replicate number 1): -0.71; Growth Rate (U2OS; 0 h, replicate number 1): 0.5
4 | COc1ccc(N(C(=O)Nc2c(C)cccc2C)c2cc(Nc3ccc(N4CCN(C)CC4)cc3)ncn2)c(OC)c1 | – | – | – | – | -0.56 | – | – | – | – | – | 0.85 | 0.97 | 0.57 | 0.14 | – | 0.77 | – | 1 | -0.25 | -0.2 | Growth Rate (U2OS; 0 h, replicate number 1): 0.61; Growth Rate (U2OS; 18 h, replicate number 1): 0.25
5 | COc1ccccc1Nc1nc(-c2nn(Cc3c(F)cc(OCCCO)cc3F)c3ccccc23)ncc1OC | – | – | – | – | -0.85 | 0.3 | 0.59 | 0.58 | 0.85 | – | – | 0.89 | 0.93 | 1 | 0.41 | – | 0.17 | – | – | 0.96 | Growth Rate (Fibroblast; 6 h, replicate number 2): 0.53; Growth Rate (Fibroblast; 18 h, replicate number 1): 0.85; Growth Rate (Fibroblast; 24 h, replicate number 1): 0.77
6 | CN[C@@H]1CC[C@@H](c2ccc(Cl)c(Cl)c2)c2ccccc21.Cl | 0.01 | -0.18 | 0.17 | 0.2 | – | -0.46 | -0.24 | -0.33 | -0.2 | 0.34 | 0.8 | 0.35 | 0.04 | 0.41 | -0.45 | 0.75 | – | -1 | 0.85 | 0.45 | Growth Rate (HEK-293T; 6 h, replicate number 1): 0; Growth Rate (HEK-293T; 6 h, replicate number 2): -0.43; Growth Rate (HEK-293T; 18 h, replicate number 2): -0.04; Growth Rate (HEK-293T; 24 h, replicate number 2): 0.07; Growth Rate (Fibroblast; 18 h, replicate number 1): -0.26; Growth Rate (Fibroblast; 24 h, replicate number 1): -0.06; Growth Rate (U2OS; 0 h, replicate number 1): -0.9; Growth Rate (U2OS; 18 h, replicate number 1): 0.81
7 | C[C@@H](Oc1cc(-n2cnc3ccc(OC4CCN(C)CC4)cc32)sc1C(N)=O)c1ccccc1Cl [GSK-579289A] | 0.7 | 0.97 | 0.82 | 0.93 | – | 0.99 | 0.94 | 0.97 | – | 0.48 | – | – | 0.84 | – | – | 0.83 | – | 0.69 | 0.93 | 0.79 | Growth Rate (HEK-293T; 6 h, replicate number 1): 0.7; Growth Rate (HEK-293T; 6 h, replicate number 2): 0.94; Growth Rate (HEK-293T; 18 h, replicate number 2): 1; Growth Rate (HEK-293T; 24 h, replicate number 2): 0.99; Growth Rate (Fibroblast; 6 h, replicate number 2): 1; Growth Rate (Fibroblast; 18 h, replicate number 1): 0.83; Growth Rate (U2OS; 18 h, replicate number 1): 0.65
8 | O=C1CCC(N2Cc3cc(CNC(=O)C(F)(F)c4ccc(Cl)cc4)ccc3C2=O)C(=O)N1 (stereo not given) | 0.83 | – | 0.81 | 0.89 | – | – | – | 0.98 | 0.99 | 0.39 | 0.81 | 0.89 | 0.98 | – | 0.51 | 0.97 | – | 0.81 | 0.99 | 0.85 | Growth Rate (HEK-293T; 18 h, replicate number 2): 1
9 | COc1cc(Oc2nc(-c3ccc(NC(=O)C4CCOC4)cc3)nn3c(C)nc(C)c23)cc(OC)c1OC (stereo not given) | – | – | – | 0.96 | 0.03 | – | – | – | – | – | 0.98 | – | 0.94 | – | 0.75 | – | – | – | 0.87 | – | –
10 | COc1cc(-c2cn[nH]c2)ccc1C(=O)Nc1ccc2c(c1)CCNCC2.Cl | – | – | – | – | 0.05 | – | – | – | – | – | – | 0.77 | 0.78 | 0.59 | – | 0.82 | -0.67 | – | 0.87 | 0.63 | Growth Rate (Fibroblast; 0 h, replicate number 1): 0.68; Growth Rate (U2OS; 18 h, replicate number 1): 0.75
11 | COc1cc(C(=O)NCCOCCOCCOCC(=O)N[C@H](C(=O)N2C[C@@H](O)C[C@H]2C(=O)NCc2ccc(-c3scnc3C)cc2)C(C)(C)C)ccc1Nc1ncc(C(F)(F)F)c(Oc2cccc3c2C(=O)CC3)n1 | – | – | – | – | 0.86 | – | – | – | – | 0.1 | – | – | – | – | – | – | -1 | – | – | 0.94 | –
12 | O=C(O)C(F)(F)F.O=C1NC(=O)/C(=C/c2c[nH]c(=O)c(-c3ccc(N4CCNCC4)nc3)c2)S1 | – | 0.93 | – | – | – | – | -0.78 | 0.69 | 0.73 | -0.63 | 0.54 | – | – | – | 0.62 | 0.92 | 0.51 | 0.87 | 0.96 | – | Growth Rate (HEK-293T; 18 h, replicate number 2): 0.96; Growth Rate (HEK-293T; 24 h, replicate number 2): 0.95; Growth Rate (Fibroblast; 0 h, replicate number 1): 0.18; Growth Rate (Fibroblast; 6 h, replicate number 2): -0.44; Growth Rate (Fibroblast; 18 h, replicate number 1): -0.06; Growth Rate (Fibroblast; 24 h, replicate number 1): 0.69; Growth Rate (U2OS; 18 h, replicate number 1): 0.97
13 | Cl.Cl.N=C(N)NCCC[C@H](NC(=O)CC1(CC(=O)N2CCN(C3c4ccccc4NC(=O)c4ccccc43)CC2)CCCC1)C(=O)NCCn1c(=O)n(-c2ccccc2)n(-c2ccccc2)c1=O (stereo not given in full) | – | – | – | – | 0.97 | 0.27 | 0.91 | – | – | 0.1 | 0.65 | 0.78 | 0.78 | 0.87 | – | 0.69 | – | -0.2 | 0.73 | 0.99 | Growth Rate (HEK-293T; 6 h, replicate number 1): 0.47; Growth Rate (Fibroblast; 18 h, replicate number 1): 0.59; Growth Rate (Fibroblast; 24 h, replicate number 1): 0.6; Growth Rate (U2OS; 0 h, replicate number 1): 0.38; Growth Rate (U2OS; 18 h, replicate number 1): 0.83
14 | O=C1Nc2nc(-c3c(O)cccc3OCC3CC3)cc([C@@H]3CCCNC3)c2CO1 | 0.62 | 0.47 | 0.78 | 0.93 | -0.79 | – | – | – | – | -0.52 | – | 0.44 | 0.47 | 0.79 | – | – | 0.88 | -0.36 | 0.83 | 0.98 | Growth Rate (HEK-293T; 6 h, replicate number 1): 0.72; Growth Rate (HEK-293T; 6 h, replicate number 2): 0.83
15 | COc1cc(/C=C(\C#N)C(=O)Nc2nnc(C(F)(F)F)s2)ccc1OCc1ccc(C(F)(F)F)cc1C(F)(F)F | 0.72 | 0.82 | 0.91 | 1 | – | – | -0.69 | 0.84 | 0.86 | – | 0.84 | 0.63 | 0.81 | 0.85 | 0.17 | – | 0.87 | – | 0.97 | 0.87 | Growth Rate (HEK-293T; 6 h, replicate number 1): 0.32; Growth Rate (HEK-293T; 6 h, replicate number 2): 0.92; Growth Rate (HEK-293T; 24 h, replicate number 2): 0.98; Growth Rate (Fibroblast; 0 h, replicate number 1): -0.12; Growth Rate (Fibroblast; 18 h, replicate number 1): 0.9; Growth Rate (Fibroblast; 24 h, replicate number 1): 0.17; Growth Rate (U2OS; 0 h, replicate number 1): 0.49
16 | COCCOCn1c(S(C)(=O)=O)nc2c1c(=O)n(C)c(=O)n2C | – | – | 0.74 | 0.86 | – | -0.48 | 0 | 0.24 | 0.7 | – | 0.11 | – | – | – | 0.03 | 0.55 | 0.35 | 0.7 | 0.76 | – | Growth Rate (HEK-293T; 18 h, replicate number 2): 0.92; Growth Rate (HEK-293T; 24 h, replicate number 2): 0.9; Growth Rate (Fibroblast; 0 h, replicate number 1): -1; Growth Rate (Fibroblast; 6 h, replicate number 2): -0.97; Growth Rate (Fibroblast; 18 h, replicate number 1): 0.05; Growth Rate (Fibroblast; 24 h, replicate number 1): 0.45; Growth Rate (U2OS; 0 h, replicate number 1): 0.81; Growth Rate (U2OS; 18 h, replicate number 1): 0.93
